This is an account of results in patent US20230382926A1, “COMPOUNDS AND USES THEREOF” (The University of The West Indies, priority 2022, published 2023).

The structures appear in SMILES notation.

One assay deals with K. pneumoniae. The assay is described as follows: Rescue concentration of substituted phenyl azaindole derivatives. In kind it is cell-based. The conditions noted are these: for Rescue concentration, K. pneumoniae Ciprofloxacin (1 μg/mL): Ciprofloxacin fixed at 1 μg/mL; for Rescue concentration, K. pneumoniae Imipenem (1 μg/mL): Imipenem fixed at 1 μg/mL. How it is done: (§1) The antibiotic adjuvant activity of the SPazaBIMs were evaluated in combination with representative antibiotics (representing 13 antibiotic classes) against the 19 pathogens strains listed in Table 3. To assess the adjuvant properties of the SP-azaBIM molecules, a modified checkerboard minimum inhibitory concentration assay was used. A fixed concentration of the respective antibiotic (susceptible breakpoint concentration) was mixed with a twofold dilution series of the test SP-azaBIM (FIG. 1). This was to determine the concentration of SP-azaBIM needed potentiate the antibiotic at a clinically susceptible breakpoint concentration. Antibiotic susceptible breakpoint concentrations for the respective bacteria were determined using Clinical Laboratory Standards Institute (CLSI) criteria M100 ED31.
(§2) In this study, only those antibiotics to which the bacterial was classed as resistant were included in the adjuvant assays. In this assay we recorded the rescue concentration of the SP-BIM for a respective antibiotic. The rescue concentration was defined as the concentration of the adjuvant that reduces the minimum inhibitory concentration (MIC) of an antibiotic to the susceptibility breakpoint.
(§3) Immediately prior to testing, the respective antibiotic and SP-azaBIM was dissolved in sterile deionised water at 20× the required test concentration. Each microtiter well was then inoculated with 180 μl of bacterial inoculum of 10^6 CFU/ml in ca-MHB, and 10 μl each if the antibiotic and SP-azaBIM was added to the plates. These plates were then incubated at 35° C. for 24 h under aerobic conditions. A similar method was followed for the fastidious pathogens except that they were cultured in ca-MHB with 5% sheep blood and 5% CO2.
(§4) Bacterial growth was visually inspected after the incubation period and the rescue concentration of the test SP-azaBIM was determined as the lowest concentration of the compound needed to reduce bacterial growth by 99.99% at the susceptible breakpoint concentration of the antibiotic. For example, CLSI states that Pseudomonas aeruginosa is susceptible to the Imipenem if the MIC is ≤2 μg mL^−1. If the bacteria can tolerate this concentration in vitro, then the bacteria has an intermediate or absolute resistance toward that antibiotic. The goal was to determine the concentration of SP-azaBIM needed to cause P. aeruginosa death at 2 μg mL^−1 of Imipenem therefore restoring susceptibility of the bacteria to toward the antibiotic.
(§5) Phenyl azaindole compounds are also tested for their adjuvant activities and the method is shown in Example 39.

Assay [1] deals with Methicillin resistant Staphylococcus aureus. The assay is described as follows: Broth microdilution minimum inhibitory concentration. In kind it is cell-based. Particulars: compound alone. How it is done: (§6) Antibacterial activity of the synthesized compounds was determined following guidelines established by the Clinical and Laboratory Standards Institute M07-A10 (CLSI 2015), following the broth microdilution method. Briefly, the test articles were dissolved in 100% DMSO, diluted by 2-fold serial titrations in the same vehicle (100% DMSO), for a total of 11 concentrations. A 4 μL aliquot of each dilution was then added to 196 μL of broth medium seeded with the bacterial suspension in wells of a 96 well plate (bacterial count: 2×10^5 to 8×10^5 colony forming units/mL final). The highest test substance concentration was 1028 μg/mL, and the final vehicle concentration was 2 percent. Following incubation, the test plate was visually examined, and each well was scored for growth or complete inhibition of growth. The minimum inhibitory concentration was determined as the lowest concentration were no growth of the bacterial was observed. Each test article was assayed in duplicate.

Assay [2] has as its system Vancomycin resistant Enterococcus faecalis. The assay is described as above. The class given is cell-based. Particulars: compound alone. As for the experimental part:
as §6

Assay [3] deals with Multidrug resistant Pseudomonas aeruginosa. The assay is described as above. The class given is cell-based. The conditions noted are these: compound alone. As for the experimental part: as §6
Assay [4] deals with Carbapenem resistant Acinetobacter baumannii. The assay is described as above. Particulars: compound alone. The class given is cell-based. As for the experimental part:
as §6

Assay [5] concerns Carbapenem resistant Klebsiella pneumoniae. The description is as above. The class given is cell-based. Particulars: compound alone. How it is done:
as §6

For a further assay, the system named is MRSA. The assay is described as follows: Rescue concentration of substituted phenyl azaindole derivatives. The class given is cell-based, Staphylococcus aureus. Particulars: Amoxicillin fixed at 2 μg/mL. How it is done:
as §1, §2, §3, §4, §5

In a further assay the test system is P. aeruginosa. Described as above. The class given is cell-based. Particulars: Imipenem fixed at 1 μg/mL. How it is done:
as §1, §2, §3
Bacterial growth was visually inspected after the incubation period and the rescue concentration of the test SP-azaBIM was determined as the lowest concentration of the compound needed to reduce bacterial growth by 99.99% at the susceptible breakpoint concentration of the antibiotic. […] If the bacteria can tolerate this concentration in vitro, then the bacteria has an intermediate or absolute resistance toward that antibiotic. […]
as §5

For the molecule `Nc1cccc(C(O)c2c[nH]c3cnccc23)c1` (stereo not drawn) [Compound 3NH2-6aza-OH, (3-aminophenyl)(1H-pyrrolo[2,3-c]pyridin-3-yl)methanol], in the assay with K. pneumoniae, the “Rescue concentration, K. pneumoniae Ciprofloxacin (1 μg/mL)” value was 64 µg/mL. Besides, the “Rescue concentration, K. pneumoniae Imipenem (1 μg/mL)” value with K. pneumoniae is 32 µg/mL. Moreover, the MIC in assay [1], in assay [2], in assay [3], in assay [4] and in assay [5] was below 1020 µg/mL each time. Also, the “Rescue concentration, MRSA Amoxicillin (2 μg/mL)” value (“Rescue concentration … (2 μg/mL)” for short) with MRSA is 8 µg/mL. In addition, in the assay with P. aeruginosa, the “Rescue concentration, P. aeruginosa Imipenem (1 μg/mL)” value came to 32 µg/mL.

As for `OC(c1ccc(Br)cc1)c1c[nH]c2cnc(Cl)cc12` (stereo not drawn) [4Br-5Cl-6aza-OH, (4-bromophenyl)(5-chloro-1H-pyrrolo[2,3-c]pyridin-3-yl)methanol], the “Rescue concentration, K. pneumoniae Ciprofloxacin (1 μg/mL)” value in the assay on K. pneumoniae was below 256 µg/mL. The “Rescue concentration, K. pneumoniae Imipenem (1 μg/mL)” value in the assay with K. pneumoniae is below 256 µg/mL. The minimum inhibitory concentration (MIC) in assay [1], in assay [2], in assay [3], in assay [4] and in assay [5] was below 1020 µg/mL throughout. The “Rescue concentration … (2 μg/mL)” value in the assay on MRSA amounted to 0.5 µg/mL. In the assay with P. aeruginosa, the “Rescue concentration, P. aeruginosa Imipenem (1 μg/mL)” value is below 256 µg/mL.

On to `Oc1ccc(C(O)c2c[nH]c3ncccc23)cc1` (stereo not drawn) [Compound 4OH-7aza-OH, 4-(hydroxy(1H-pyrrolo[2,3-b]pyridin-3-yl)methyl)phenol], for which, in the assay on K. pneumoniae, the “Rescue concentration, K. pneumoniae Ciprofloxacin (1 μg/mL)” value is below 256 µg/mL. Further, in the assay with K. pneumoniae, the “Rescue concentration, K. pneumoniae Imipenem (1 μg/mL)” value is below 256 µg/mL. Besides, the minimum inhibitory concentration (MIC) in assay [1], in assay [2], in assay [3], in assay [4] and in assay [5] was below 1020 µg/mL throughout. Moreover, the “Rescue concentration … (2 μg/mL)” value in the assay with MRSA was determined as 128 µg/mL. Moreover, the “Rescue concentration, P. aeruginosa Imipenem (1 μg/mL)” value in the assay on P. aeruginosa was below 256 µg/mL.

In the case of `Oc1ccc(C(O)c2c[nH]c3ncc(F)cc23)cc1` (stereo not drawn) [4OH-5Fl-7aza-OH, 4-((5-fluoro-1H-pyrrolo[2,3-b]pyridin-3-yl)(hydroxy)methyl)phenol], the “Rescue concentration, K. pneumoniae Ciprofloxacin (1 μg/mL)” value in the assay with K. pneumoniae was below 256 µg/mL. Further, in the assay with K. pneumoniae, the “Rescue concentration, K. pneumoniae Imipenem (1 μg/mL)” value is below 256 µg/mL. Besides, the minimal inhibitory concentration (MIC) in assay [1], in assay [2], in assay [3], in assay [4] and in assay [5] was below 1020 µg/mL throughout. The “Rescue concentration … (2 μg/mL)” value with MRSA was 16 µg/mL. Also, the “Rescue concentration, P. aeruginosa Imipenem (1 μg/mL)” value with P. aeruginosa turned out to be 256 µg/mL.

For `O=[N+]([O-])c1cccc(C(O)c2c[nH]c3ncccc23)c1` (stereo not drawn) [Compound 3NO2-7aza-OH, (3-nitrophenyl)(1H-pyrrolo[2,3-b]pyridin-3-yl)methanol], in the assay on K. pneumoniae, the “Rescue concentration, K. pneumoniae Ciprofloxacin (1 μg/mL)” value is below 256 µg/mL. In addition, the “Rescue concentration, K. pneumoniae Imipenem (1 μg/mL)” value in the assay on K. pneumoniae was below 256 µg/mL. In addition, the MIC in assay [1], in assay [2], in assay [3], in assay [4] and in assay [5] was below 1020 µg/mL in each case. In addition, the “Rescue concentration … (2 μg/mL)” value with MRSA was below 256 µg/mL. For the same molecule, the “Rescue concentration, P. aeruginosa Imipenem (1 μg/mL)” value in the assay with P. aeruginosa was below 256 µg/mL.

As for `O=[N+]([O-])c1ccc(C(O)c2c[nH]c3cnc(Cl)cc23)cc1` (stereo not drawn) [4NO2-5Cl-6aza-OH, (5-chloro-1H-pyrrolo[2,3-c]pyridin-3-yl)(4-nitrophenyl)methanol], the “Rescue concentration, K. pneumoniae Ciprofloxacin (1 μg/mL)” value in the assay with K. pneumoniae is below 256 µg/mL. For the same molecule, the “Rescue concentration, K. pneumoniae Imipenem (1 μg/mL)” value with K. pneumoniae is below 256 µg/mL. Besides, the MIC in assay [1], in assay [2], in assay [3], in assay [4] and in assay [5] was below 1020 µg/mL each time. The “Rescue concentration … (2 μg/mL)” value in the assay with MRSA is below 256 µg/mL. In addition, in the assay on P. aeruginosa, the “Rescue concentration, P. aeruginosa Imipenem (1 μg/mL)” value was determined as 128 µg/mL.
